Laboratory results reported in patent US7078565B2, “Benzamide derivatives as antagonists of orexin receptors” (SmithKline Beecham plc, priority 2001, dated 2006).

What was measured:
rat = experiment: Rat sleep/EEG studies; format: in vivo; conditions: central administration at the onset of the normal sleep period; at the expense of paradoxical sleep and slow wave sleep 2
Text: Therefore antagonists of its receptors may be useful in the treatment of sleep disorders including insomnia.

freely-feeding rats = conditions: central administration, 4 hour time period; cited from earlier work

orexin-A: peptide ligand for the orexin-1 receptor, an agonist of the orexin receptors; sequence given in b81 (QPLPDCCRQKTCSCRLYELLHGAGNHAAGILTL; not fully specified; Orexin-A; UniProt O43612 34-66, looked up)
arousal (rat): dose-related increase in arousal
increase in food intake over control rats receiving vehicle (freely-feeding rats): approximately four-fold
